Assay results published in PMC6719084, “Activating the Intrinsic Pathway of Apoptosis Using BIM BH3 Peptides Delivered by Peptide Amphiphiles with Endosomal Release” (Materials, 2019).

Molecular target: T1, human cathepsin B (Homo sapiens, UniProt P07858)
T1 construct: Cathepsin B purified from human liver (Sigma-Aldrich, St. Louis, MO, USA); purchased Sigma-Aldrich; host or cells: human liver
Test: Fluorogenic cathepsin-cleavage assay (Z-RR-AMC)
Type: biochemical
Conditions: recombinant cathepsin B, in vitro
Source text: The fluorogenic cathepsin-cleavage assay was done as previously described using the cathepsin B cleavage substrate Z-Arg-Arg-7-amido-4-methylcoumarin hydrochloride (Z-RR-AMC; Sigma-Aldrich, St. Louis, MO, USA) and human cathepsin B with or without the cathepsin inhibitor CA-074Me (EMD Millipore, Burlington, MA, USA).

CCCNC(=O)[C@H]1O[C@@H]1C(=O)N[C@H](C(=O)N1CCC[C@H]1C(=O)OC)[C@@H](C)CC [CA-074Me]
inhibition of cathepsin B cleavage of fluorogenic reporter substrate: blocked reporter substrate cleavage
